Results published in ChEMBL document CHEMBL5154882, “Discovery of 4-Hydroxyquinazoline Derivatives as Small Molecular BET/PARP1 Inhibitors That Induce Defective Homologous Recombination and Lead to Synthetic Lethality for Triple-Negative Breast Cancer Therapy” (J Med Chem, 2022).
Active and inactive are the calls of the source. The calls are words filed in the database; no cut-off is given here.

Key:
[1] = Toxicity in BALB/c nude mouse xenografted with human MDA-MB-468 cells assessed as morphological changes in kidney at 80 mg/kg, ig administered daily for 16 days measured every 3 days by hematoxyin-eosin staining based analysis; format: organism-based; conditions: in vivo, po, 384 h, time 16 day
[2] = system: MDA-MB-468; experiment: Induction of apoptosis in human MDA-MB-468 cells assessed as early apoptotic cells at 10 uM incubated for 72 hrs by annexin V/propidium iodide staining-based flow cytometry analysis (reference value: 4.07%); format: functional
[3] = Toxicity in BALB/c nude mouse xenografted with human MDA-MB-468 cells assessed as morphological changes in liver at 80 mg/kg, ig administered daily for 16 days measured every 3 days by hematoxyin-eosin staining based analysis; format: organism-based; conditions: in vivo, po, 384 h, time 16 day
[4] = system: MDA-MB-468; experiment: Cell cycle arrest in human MDA-MB-468 cells assessed as accumulation at G2/M phase at 10 uM incubated for 72 hrs by propidium iodide staining-based flow cytometry analysis (reference value: 16.1%); format: functional
[5] = Half life in Sprague-Dawley rat at 1 mg/kg, iv; format: ADME, organism-based; conditions: in vivo
[6] = system: MDA-MB-468; experiment: Cell cycle arrest in human MDA-MB-468 cells assessed as accumulation at G0/G1 phase at 20 uM incubated for 72 hrs by propidium iodide staining-based flow cytometry analysis (reference value: 61.4%); format: functional
[7] = Toxicity in BALB/c nude mouse xenografted with human MDA-MB-468 cells assessed as morphological changes in spleen at 80 mg/kg, ig administered daily for 16 days measured every 3 days by hematoxyin-eosin staining based analysis; format: organism-based; conditions: in vivo, po, 384 h, time 16 day
[8] = target: T1, Poly [ADP-ribose] polymerase 1 (Homo sapiens, UniProt P09874); experiment: Inhibition of PARP1 (unknown origin) at 1 uM relative to control
T1 sequence (P09874 whole entry): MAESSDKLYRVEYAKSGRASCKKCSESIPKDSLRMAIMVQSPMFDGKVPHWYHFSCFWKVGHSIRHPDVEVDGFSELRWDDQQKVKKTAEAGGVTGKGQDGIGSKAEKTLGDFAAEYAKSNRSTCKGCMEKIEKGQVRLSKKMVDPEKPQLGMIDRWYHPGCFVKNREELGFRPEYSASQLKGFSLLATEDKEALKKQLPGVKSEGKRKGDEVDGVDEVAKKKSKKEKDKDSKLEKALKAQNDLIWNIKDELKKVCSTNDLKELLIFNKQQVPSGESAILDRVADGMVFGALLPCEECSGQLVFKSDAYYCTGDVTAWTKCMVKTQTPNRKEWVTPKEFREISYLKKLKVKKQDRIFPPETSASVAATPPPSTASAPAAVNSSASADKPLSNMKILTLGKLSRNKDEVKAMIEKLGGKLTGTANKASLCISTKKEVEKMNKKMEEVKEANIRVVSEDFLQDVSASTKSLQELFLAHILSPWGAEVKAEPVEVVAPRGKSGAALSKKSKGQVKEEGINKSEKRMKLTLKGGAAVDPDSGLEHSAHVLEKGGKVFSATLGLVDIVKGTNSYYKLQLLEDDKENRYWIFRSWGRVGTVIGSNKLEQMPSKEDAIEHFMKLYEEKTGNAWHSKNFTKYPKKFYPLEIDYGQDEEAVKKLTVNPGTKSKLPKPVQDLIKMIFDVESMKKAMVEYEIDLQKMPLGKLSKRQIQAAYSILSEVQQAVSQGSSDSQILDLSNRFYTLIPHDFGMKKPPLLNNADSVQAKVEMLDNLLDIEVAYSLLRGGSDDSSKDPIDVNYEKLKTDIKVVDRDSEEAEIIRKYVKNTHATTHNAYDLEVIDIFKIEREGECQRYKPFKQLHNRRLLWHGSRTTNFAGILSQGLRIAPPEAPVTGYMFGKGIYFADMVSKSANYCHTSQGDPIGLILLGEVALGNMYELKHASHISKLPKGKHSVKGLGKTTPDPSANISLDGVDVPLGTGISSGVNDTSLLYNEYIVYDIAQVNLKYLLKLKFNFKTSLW

[9] = system: MDA-MB-231; experiment: Inhibition of homologous recombinant repair in human MDA-MB-231 cells assessed as down-regulation of Mre11 expression at 5 to 20 uM in by Western blot analysis; format: functional, cell-based; conditions: dose 5-20 µM
[10] = target: T2, Bromodomain-containing protein 4 (Homo sapiens, UniProt O60885); experiment: Inhibition of BRD4 (unknown origin)
[11] = system: MDA-MB-468; experiment: Inhibition of homologous recombinant repair in human MDA-MB-468 cells assessed as down-regulation of CtlP expression at 5 to 20 uM in by Western blot analysis; format: functional, cell-based; conditions: dose 5-20 µM
[12] = system: MDA-MB-468; experiment: Induction of DNA damage in human MDA-MB-468 cells assessed as up-regulation of gammaH2AX expression level at 5 to 20 uMby DAPI staining based immunofluorescence assay; format: functional, cell-based; conditions: dose 5-20 µM
[13] = system: MDA-MB-468; experiment: Inhibition of clone formation in human MDA-MB-468 cells measured after 10 days by crystal violet staining based analysis; format: functional, cell-based; conditions: dose 5-20 µM, time 10.0 day, DDE = dose-dependent effect
[14] = Toxicity in BALB/c nude mouse xenografted with human MDA-MB-468 cells assessed as morphological changes in kidney at 40 to 80 mg/kg, ig administered daily for 16 days measured every 3 days by hematoxyin-eosin staining based analysis; format: organism-based; conditions: in vivo, po, 384 h, dose 40-80 mg/kg, time 16 day
[15] = system: MDA-MB-468; experiment: Induction of apoptosis in human MDA-MB-468 cells assessed as early apoptotic cells at 5 uM incubated for 72 hrs by annexin V/propidium iodide staining-based flow cytometry analysis (reference value: 4.07%); format: functional
[16] = Toxicity in BALB/c nude mouse xenografted with human MDA-MB-468 cells assessed as morphological changes in lung at 80 mg/kg, ig administered daily for 16 days measured every 3 days by hematoxyin-eosin staining based analysis; format: organism-based; conditions: in vivo, po, 384 h, time 16 day
[17] = Toxicity in BALB/c nude mouse xenografted with human MDA-MB-468 cells assessed as death at 40 to 80 mg/kg, ig administered daily for 16 days measured every 3 days; format: organism-based; conditions: in vivo, po, 384 h, dose 40-80 mg/kg, time 16 day
[18] = Oral bioavailability in Sprague-Dawley rat at 10 mg/kg; format: ADME, organism-based; conditions: in vivo
[19] = Toxicity in BALB/c nude mouse xenografted with human MDA-MB-468 cells assessed as morphological changes in heart at 40 to 80 mg/kg, ig administered daily for 16 days measured every 3 days by hematoxyin-eosin staining based analysis; format: organism-based; conditions: in vivo, po, 384 h, dose 40-80 mg/kg, time 16 day
[20] = system: MDA-MB-468; experiment: Induction of apoptosis in human MDA-MB-468 cells assessed as up-regulation of cleaved caspase 3 protein level at 20 uM incubated for 72 hrs by Western blot analysis; format: functional, cell-based
[21] = Half life in Sprague-Dawley rat at 10 mg/kg, po; format: ADME, organism-based; conditions: in vivo
[22] = Cmax in Sprague-Dawley rat at 1 mg/kg, iv; format: ADME, organism-based; parameters: dose 1 mg/kg, route iv; conditions: in vivo
[23] = target: T2, Bromodomain-containing protein 4; experiment: Inhibition of BRD4 (unknown origin) at 1 uM relative to control
[24] = system: MDA-MB-231; experiment: Antitumor activity against human MDA-MB-231 cells xenografted in BALB/c nude mouse assessed as downregulation of PAR at 80 mg/kg by Western blot analysis; format: functional, organism-based
[25] = target: T1, Poly [ADP-ribose] polymerase 1; experiment: Binding affinity to PARP1 in human MDA-MB-468 cells assessed as increase in thermal stability at 5 uM by cellular thermal shift assay; format: cell-based
[26] = Toxicity in BALB/c nude mouse xenografted with human MDA-MB-468 cells assessed as death at 80 mg/kg, ig administered daily for 16 days measured every 3 days; format: organism-based; conditions: in vivo, po, 384 h, time 16 day
[27] = system: MDA-MB-468; experiment: Induction of apoptosis in human MDA-MB-468 cells assessed as downregulation of Bcl-2 protein level at 20 uM incubated for 72 hrs by Western blot analysis; format: functional, cell-based
[28] = target: T2, Bromodomain-containing protein 4; experiment: Inhibition of BRD4 BD1 (unknown origin)
[29] = system: MDA-MB-231; experiment: Antitumor activity against human MDA-MB-231 cells xenografted in BALB/c nude mouse assessed as downregulation of CtIP at 80 mg/kg by Western blot analysis; format: functional, organism-based
[30] = target: T2, Bromodomain-containing protein 4; experiment: Binding affinity to BRD4 in human MDA-MB-468 cells assessed as increase in thermal stability at 5 uM by cellular thermal shift assay; format: cell-based
[31] = system: MDA-MB-468; experiment: Antiproliferative activity against human MDA-MB-468 cells assessed as reduction in cell viability incubated for 72 hrs by MTT assay; format: functional, cell-based; conditions: MDA-MB-468, 72 h
[32] = system: MDA-MB-231; experiment: Antitumor activity against human MDA-MB-231 cells xenografted in BALB/c nude mouse assessed as tumor growth inhibition at 40 to 80 mg/kg incubated for 30 to 40 mins by Ki-67 staining based immunohistochemical analysis; format: functional, organism-based; conditions: dose 40-80 mg/kg, time 30-40 min
[33] = Cmax in Sprague-Dawley rat at 10 mg/kg, po; format: ADME, organism-based; parameters: dose 10 mg/kg, route po; conditions: in vivo
[34] = system: MDA-MB-231; experiment: Antitumor activity against human MDA-MB-231 cells xenografted in BALB/c nude mouse assessed as reduction in CtIp expression at 40 to 80 mg/kg incubated for 30 to 40 mins by immunohistochemical analysis; format: functional, organism-based; conditions: dose 40-80 mg/kg, time 30-40 min
[35] = system: MDA-MB-231; experiment: Antitumor activity against human MDA-MB-231 cells xenografted in BALB/c nude mouse assessed as downregulation of Rad51 at 80 mg/kg by Western blot analysis; format: functional, organism-based
[36] = system: MDA-MB-231; experiment: Antitumor activity against human MDA-MB-231 cells xenografted in BALB/c nude mouse assessed as reduction in c-Myc expression at 40 to 80 mg/kg incubated for 30 to 40 mins by immunohistochemical analysis; format: functional, organism-based; conditions: dose 40-80 mg/kg, time 30-40 min
[37] = system: MDA-MB-231; experiment: Antitumor activity against human MDA-MB-231 cells xenografted in BALB/c nude mouse assessed as downregulation of c-Myc at 80 mg/kg by Western blot analysis; format: functional, organism-based

## COc1cc(OC)c2c(=O)[nH]c(-c3cccc(Cc4n[nH]c(=O)c5ccccc45)c3)nc2c1
[1]
  Activity: Non-Toxic
[2]
  Activity: 25.61%
[3]
  Activity: Non-Toxic
[4]
  Activity: 14.5%
[5]
  t1/2: 3.02 h
[6]
  Activity: 74.3%
[7]
  Activity: Non-Toxic
[8]
  inhibition: 79.2%
[9]
  Activity: Active
[10]
  IC50: 238 nM
[11]
  inhibition: Active
[12]
  Activity: Active
[13]
  inhibition: Dde
[14]
  Activity: Non-Toxic
[15]
  Activity: 21.47%
[16]
  Activity: Non-Toxic
[17]
  Activity: Non-Toxic
[18]
  bioavailability: 23.8%
[19]
  Activity: Non-Toxic
[20]
  Activity: Active
[21]
  half-life: 3.33 h
[22]
  Cmax: 258 ng/mL
[23]
  inhibition: 76.2%
[24]
  Activity: Active
[25]
  Activity: Active
[26]
  Activity: Non-Toxic
[27]
  Activity: Active
[28]
  IC50: 251 nM
[29]
  Activity: Active
[30]
  Activity: Active
[31]
  IC50: 3010 nM
[32]
  Activity: Active
[33]
  Cmax: 242 ng/mL
[34]
  Activity: Active
[35]
  Activity: Active
[36]
  Activity: Active
[37]
  Activity: Active
